According to US20170107207A1, “AMINOPYRAZOLONE DERIVATIVE” (DAIICHI SANKYO COMPANY, LIMITED, priority 2014, published 2017):
pIC50: −log10 of the molar value.

Experiments:
TIP48/TIP49 complex = target: T1, TIP48/TIP49 complex (Homo sapiens, UniProt Q9Y230+Q9Y265); test: ATPase assay of TIP48/TIP49 complex (ADP-Glo); assay type: biochemical; settings: concentration at which the ATPase activity was inhibited by 50%
T1 construct: made in house; host or cells: E. coli
How it was run: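 Compound was tested over 10 four-fold concentrations, 200 μM down to 0.0007 μM at 2% DMSO, against E. coli-derived human rTIP48/rTIP49 for 1.5 h at room temperature, pH 7.5 with ATP. ATP hydrolysis was read as ADP-Glo luminescence, normalised to complex-only and no-complex wells, then fitted to dose-response curves.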

[1] = tested on: human lymphoma cell line RAMOS cells; test: Cell growth inhibition test using RAMOS cell, MTT assay; assay type: cell-based; settings: 50% growth inhibition concentration
Experimental: A cell growth inhibition test was carried out by treating human lymphoma cell line RAMOS cells with a test compound for a given period and then counting the number of viable cells by MTT assay or CellTiter-Glo Luminescent Cell Viability Assay (manufactured by Promega Corp.; hereinafter, referred to as ATP assay).
RAMOS cells were suspended in a medium (RPMI1640 medium containing 10% fetal bovine serum). The cell suspension was inoculated at 5000 cells/150 μL/well to a 96-well multiwell plate. The test compound was dissolved in DMSO, and this solution was diluted with medium to prepare a sample solution (DMSO concentration: 1% or lower). Subsequently, test compound-free medium or the sample solution was added thereto at 50 μL/well. The MTT assay was carried out at the day of addition of the sample solution or the DMSO dilution to the cells and after culture at 37° C. for 3 days under 5% CO2 of the cells supplemented with the sample solution or the medium. The MTT assay was carried out as follows.
A 5 mg/mL solution of MTT (3-(4,5-dimethylthiazol-2-yl)-2,5-diphenyltetrazolium bromide, Sigma-Aldrich Corp., M-2128) was prepared using a phosphate buffered solution (Dulbecco's phosphate-buffered saline). This MTT solution was added at 20 μL/well to the plate. Then, the plate was incubated at 37° C. for 4 hours under 5% CO2. The plate was centrifuged at 1200 rpm for 5 minutes, and then, the culture supernatant was removed by suction using a dispenser. DMSO was added thereto at 150 μL/well to dissolve formed formazan. […] from each well was rendered uniform by the stirring of the plate using a plate mixer. The absorbance of each well was measured using a plate reader under conditions involving OD of 540 nm and reference of 660 nm.
The number of viable cells and absorbance (hereinafter, referred to as an OD value) have been confirmed to correlate with each other. Therefore, the rate of cell growth was calculated according to the following expression: Rate of cell growth (T/C %) of a test compound-supplemented well=100×[(B−C)/(A−C)] wherein A represents the OD value (final culture date) of a test compound-free well; B represents the OD value (final culture date) of a test compound-containing well; and C represents the OD value (day of cell inoculation) of a well at the start of contact of the cells with the test compound.
T/C % at each concentration of the test compound was determined. The concentration at which the test compound offered 50% growth rate was calculated as a 50% growth inhibition concentration (GI50) value from the growth rates at two points interpolating 50% and the concentrations, and is shown in Table 56.

[2] = tested on: human lymphoma cell line RAMOS cells; test: Cell growth inhibition test using RAMOS cell, ATP assay (CellTiter-Glo); assay type: cell-based; settings: Homo sapiens, 72 h, cultured 3 days, 50% growth inhibition concentration
How it was run: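 RAMOS cells seeded at 4000 cells/well with compound and cultured 3 days at 37° C, 5% CO2; viability by CellTiter-Glo luminescence. Growth rate T/C % = 100×[(B−C)/(A−C)] using day-0 and final readings; GI50 interpolated from the two concentrations bracketing 50% growth.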

T1 sequence (Q9Y230 whole entry): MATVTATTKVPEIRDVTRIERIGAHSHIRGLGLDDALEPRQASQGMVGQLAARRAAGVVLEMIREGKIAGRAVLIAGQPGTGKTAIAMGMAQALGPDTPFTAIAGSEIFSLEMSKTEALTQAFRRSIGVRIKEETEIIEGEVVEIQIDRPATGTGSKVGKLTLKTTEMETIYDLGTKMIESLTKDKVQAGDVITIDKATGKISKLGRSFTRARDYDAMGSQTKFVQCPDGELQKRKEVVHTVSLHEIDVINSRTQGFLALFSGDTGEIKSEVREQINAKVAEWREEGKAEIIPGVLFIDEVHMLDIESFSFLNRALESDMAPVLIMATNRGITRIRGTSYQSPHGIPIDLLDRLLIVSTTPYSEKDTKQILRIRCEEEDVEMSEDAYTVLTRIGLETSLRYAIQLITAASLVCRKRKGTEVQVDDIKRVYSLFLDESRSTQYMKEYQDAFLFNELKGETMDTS
T1 sequence (Q9Y265 whole entry): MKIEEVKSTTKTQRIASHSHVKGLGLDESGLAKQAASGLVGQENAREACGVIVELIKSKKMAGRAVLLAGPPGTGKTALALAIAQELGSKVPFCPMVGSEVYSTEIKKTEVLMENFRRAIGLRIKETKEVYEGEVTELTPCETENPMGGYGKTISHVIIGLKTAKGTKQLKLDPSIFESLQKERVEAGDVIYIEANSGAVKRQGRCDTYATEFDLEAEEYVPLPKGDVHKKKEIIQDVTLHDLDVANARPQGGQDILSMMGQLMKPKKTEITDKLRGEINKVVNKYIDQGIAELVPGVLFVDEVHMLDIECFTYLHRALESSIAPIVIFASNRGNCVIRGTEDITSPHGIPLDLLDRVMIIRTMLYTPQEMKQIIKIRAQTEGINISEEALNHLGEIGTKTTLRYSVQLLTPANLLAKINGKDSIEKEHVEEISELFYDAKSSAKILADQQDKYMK

Compound `CCOc1ncc(Cl)cc1C(=O)NCC(C)(C)CC(=O)Nc1c(COC)n(C)n(-c2ccccc2)c1=O` [Example 117, 5-Chloro-2-ethoxy-N-(4-{[5-(methoxymethyl)-1-methyl-3-oxo-2-phenyl-2,3-dihydro-1H-pyrazol-4-yl]amino}-2,2-dimethyl-4-oxobutyl)pyridine-3-carboxamide] has a pIC50 (TIP48/TIP49 complex) of 7.39 and a GI50 [1] of 110 nM.

Work on `COc1cc(F)c(Cl)cc1NC(=O)CC(C)(C)CC(=O)Nc1c(C)[nH]n(-c2ccccc2)c1=O` [Example 144, N-(5-Chloro-4-fluoro-2-methoxyphenyl)-3,3-dimethyl-N′-(5-methyl-3-oxo-2-phenyl-1H-pyrazol-4-yl)pentanediamide] yielded a pIC50 (TIP48/TIP49 complex) of 5.82 and a GI50 [1] of 11000 nM.

`CCOc1ccc(Cl)cc1C(=O)NCC(C)(C)CC(=O)Nc1c(CCCCN(C)C)n(C)n(-c2ccccc2)c1=O` [Example 88, 5-Chloro-N-[4-({5-[4-(dimethylamino)butyl]-1-methyl-3-oxo-2-phenyl-2,3-dihydro-1H-pyrazol-4-yl}amino)-2,2-dimethyl-4-oxobutyl]-2-ethoxybenzamide] was tested, and the pIC50 (TIP48/TIP49 complex) was 7.48 and the GI50 [1] was 61 nM.

For `CCOc1ncc(Cl)cc1C(=O)NCC(C)(C)CC(=O)Nc1c(C)n(CCN(C)C)n(-c2ccccc2)c1=O` [Example 141, 5-Chloro-N-[4-({1-[2-(dimethylamino)ethyl]-5-methyl-3-oxo-2-phenyl-2,3-dihydro-1H-pyrazol-4-yl}amino)-2,2-dimethyl-4-oxobutyl]-2-ethoxypyridine-3-carboxamide], the pIC50 (TIP48/TIP49 complex) was 6.80 and the GI50 [1] was 230 nM.

`CCOc1cc(F)c(Cl)cc1NC(=O)CC(C)(C)CC(=O)Nc1c(COC)n(C)n(-c2ccccc2)c1=O` [Example 119, N-(5-Chloro-2-ethoxy-4-fluorophenyl)-N′-[5-(methoxymethyl)-1-methyl-3-oxo-2-phenyl-2,3-dihydro-1H-pyrazol-4-yl]-3,3-dimethylpentanediamide] was tested, and the pIC50 (TIP48/TIP49 complex) was 7.02 and the GI50 [1] was 270 nM.

`COc1cc(F)c(Cl)cc1NC(=O)CC(C)(C)CC(=O)Nc1c(CN(C)C)n(C)n(-c2ccccc2)c1=O` [Example 9, N-(5-Chloro-4-fluoro-2-methoxyphenyl)-N′-{5-[(dimethylamino)methyl]-1-methyl-3-oxo-2-phenyl-2,3-dihydro-1H-pyrazol-4-yl}-3,3-dimethylpentanediamide] gave a pIC50 (TIP48/TIP49 complex) of 6.68 and a GI50 [1] of 480 nM.

`COc1ccc(Cl)cc1C(=O)NCC(C)(C)C(O)C(=O)Nc1c(C)n(C)n(-c2ccccc2)c1=O` (stereo not shown) [Example 112] showed a pIC50 (TIP48/TIP49 complex) of 6.82 and a GI50 [1] of 680 nM.

`CCc1nc2c(C(=O)NCC(C)(C)CC(=O)Nc3c(C)n(C)n(-c4ccccc4)c3=O)cc(Cl)cc2o1` [Example 111, 6-Chloro-N-{4-[(1,5-dimethyl-3-oxo-2-phenyl-2,3-dihydro-1H-pyrazol-4-yl)amino]-2,2-dimethyl-4-oxobutyl}-2-ethyl-1,3-benzoxazole-4-carboxamide] gave a pIC50 (TIP48/TIP49 complex) of 7.36 and a GI50 [1] of 90 nM.

Work on `Cc1c(NC(=O)CC(C)(C)CNC(=O)c2cc(Cl)ccc2OC(C)C)c(=O)n(-c2ccccc2)n1C` [Example 94] yielded a pIC50 (TIP48/TIP49 complex) of 7.06 and a GI50 [1] of 73 nM.

Work on `CCOc1ccc(Cl)cc1C(=O)NCC(C)(C)CC(=O)Nc1c(CCN(C)C(C)C)n(C)n(-c2ccccc2)c1=O` [Example 19, 5-Chloro-2-ethoxy-N-{4-[(5-{2-[isopropyl(methyl)amino]ethyl}-1-methyl-3-oxo-2-phenyl-2,3-dihydro-1H-pyrazol-4-yl)amino]-2,2-dimethyl-4-oxobutyl}benzamide] yielded a pIC50 (TIP48/TIP49 complex) of 7.20 and a GI50 [1] of 150 nM.

In the case of `COc1ccc(Cl)cc1C(=O)NCC(C)(C)CC(=O)Nc1c(CN(C)CCO)n(C)n(-c2ccccc2)c1=O` [Example 8, 5-Chloro-N-(4-[(5-{[2-hydroxyethyl(methyl)amino]methyl}-1-methyl-3-oxo-2-phenyl-2,3-dihydro-1H-pyrazol-4-yl)amino]-2,2-dimethyl-4-oxobutyl)-2-methoxybenzamide], the pIC50 (TIP48/TIP49 complex) was 7.02 and the GI50 [1] was 170 nM.

`CCC(C)(CC(=O)Nc1cc(Cl)ccc1OC)CC(=O)Nc1c(C)n(C)n(-c2ccccc2)c1=O` (stereo not shown) [Example 99, N-(5-Chloro-2-methoxyphenyl)-N′-(1,5-dimethyl-3-oxo-2-phenyl-2,3-dihydro-1H-pyrazol-4-yl)-3-ethyl-3-methylpentanediamide] gave a pIC50 (TIP48/TIP49 complex) of 6.59 and a GI50 [1] of 400 nM.

For `CCOc1ccc(Cl)cc1C(=O)NCC(C)(C)CC(=O)Nc1c(CCCCO)n(C)n(-c2ccccc2)c1=O` [Example 130, 5-Chloro-2-ethoxy-N-(4-{[5-(4-hydroxybutyl)-1-methyl-3-oxo-2-phenyl-2,3-dihydro-1H-pyrazol-4-yl]amino}-2,2-dimethyl-4-oxobutyl)benzamide], the pIC50 (TIP48/TIP49 complex) was 7.27 and the GI50 ([2]; Ramos) was 64 nM.

In the case of `CCOc1ncc(Cl)cc1C(=O)NCC(C)(C)CC(=O)Nc1c(C(C)NC)n(C)n(-c2ccccc2)c1=O` (stereo not shown) [Example 2, 5-Chloro-N-[2,2-dimethyl-4-({1-methyl-5-[1-(methylamino)ethyl]-3-oxo-2-phenyl-2,3-dihydro-1H-pyrazol-4-yl}amino)-4-oxobutyl]-2-ethoxypyridine-3-carboxamide], the pIC50 (TIP48/TIP49 complex) was 6.80 and the GI50 ([2]; Ramos) was 250 nM.

Compound `CCOc1ccc(Cl)cc1C(=O)NCC(C)(C)CC(=O)Nc1c(C(C)(C)CN(C)C)n(C)n(-c2ccccc2)c1=O` [Example 84, 5-Chloro-N-[4-({5-[2-(dimethylamino)-1,1-dimethylethyl]-1-methyl-3-oxo-2-phenyl-2,3-dihydro-1H-pyrazol-4-yl}amino)-2,2-dimethyl-4-oxobutyl]-2-ethoxybenzamide] has a pIC50 (TIP48/TIP49 complex) of 7.10 and a GI50 ([2]; Ramos) of 170 nM.

With `CCOc1ncc(Cl)cc1C(=O)NCC(C)(C)CC(=O)Nc1c(C(CN(C)C)OC)n(C)n(-c2ccccc2)c1=O` (single isomer, unassigned; (-)) [Example 82, (−)-5-Chloro-N-[4-({5-[2-(dimethylamino)-1-methoxyethyl]-1-methyl-3-oxo-2-phenyl-2,3-dihydro-1H-pyrazol-4-yl}amino)-2,2-dimethyl-4-oxobutyl]-2-ethoxypyridine-3-carboxamide] the pIC50 (TIP48/TIP49 complex) was 7.31 and the GI50 ([2]; Ramos) was 370 nM.

`CCOc1cc(F)c(Cl)cc1C(=O)NCC(C)(C)C(C)C(=O)Nc1c(COC)n(C)n(-c2ccccc2)c1=O` (stereo not shown) [Example 159, 5-Chloro-2-ethoxy-4-fluoro-N-(4-{[5-(methoxymethyl)-1-methyl-3-oxo-2-phenyl-2,3-dihydro-1H-pyrazol-4-yl]amino}-2,2,3-trimethyl-4-oxobutyl)benzamide] was tested, and the pIC50 (TIP48/TIP49 complex) was 7.11 and the GI50 [2] was 840 nM.

`Cc1cc2cc(Cl)cc(C(=O)NCC(C)(C)CC(=O)Nc3c(CCCN(C)C)n(C)n(-c4ccccc4)c3=O)c2o1` [Example 65, 5-Chloro-N-[4-({5-[3-(dimethylamino)propyl]-1-methyl-3-oxo-2-phenyl-2,3-dihydro-1H-pyrazol-4-yl}amino)-2,2-dimethyl-4-oxobutyl]-2-methylbenzofuran-7-carboxamide] gave a pIC50 (TIP48/TIP49 complex) of 7.36 and a GI50 ([2]; Ramos) of 200 nM.

`CCOc1ccc(Cl)cc1C(=O)NCC(C)(C)CC(=O)Nc1c([C@@H](C)CN(C)C)n(C)n(-c2ccccc2)c1=O` [Example 67, 5-Chloro-N-[4-({5-[(1S)-2-(dimethylamino)-1-methylethyl]-1-methyl-3-oxo-2-phenyl-2,3-dihydro-1H-pyrazol-4-yl}amino)-2,2-dimethyl-4-oxobutyl]-2-ethoxybenzamide] showed a pIC50 (TIP48/TIP49 complex) of 7.44 and a GI50 ([2]; Ramos) of 150 nM.

`CNCC(C)c1c(NC(=O)CC(C)(C)CNC(=O)c2cc(Cl)cc3cc(C)oc23)c(=O)n(-c2ccccc2)n1C` (stereo not shown) [Example 78, 5-Chloro-N-[2,2-dimethyl-4-({1-methyl-5-[1-methyl-2-(methylamino)ethyl]-3-oxo-2-phenyl-2,3-dihydro-1H-pyrazol-4-yl}amino)-4-oxobutyl]-2-methylbenzofuran-7-carboxamide] was tested, and the pIC50 (TIP48/TIP49 complex) was 7.15 and the GI50 ([2]; Ramos) was 480 nM.
